# Where “and” joins values, the source holds several entries; their conditions need not be identical. Equal entries are not always repeated. Entries after “also recorded” stand apart in the source; their conditions may differ.
# Tests used:
# [1] = target: T1, Nav1.5-R1644C (Homo sapiens, UniProt Q14524, R1644C); assay: Whole-cell patch-clamp ILATE of Nav1.5-R1644C in HEK293T cells with CRY2-5POCRL; assay type: cell-based
# T1 construct: expressed in transfected cells; host or cells: HEK293T
# Procedure: This is opposed when by 200 μM diC8-PIP2 in the pipette. Comparisons are Students t-test, *** P<0.01, ****P0.001 for 4-6 cells per group.
# Results. Our studies were designed to evaluate PIP2-regulation for Nav1.5 channelopathies from multiple perspectives. Given that there is a lack of structural data to identify where, or how many PIP2 molecules bind to Nav1.5, we performed a docking simulation to identify putative PIP2 binding sites in the open, rat and human Nav1.5 cryoEM structures (PDB: 6UZ3 and 7DTC) (56-58). We observed four potential PIP2 binding sites at the boundary between the inner leaflet of the membrane and the cytoplasm with one at the interface between each voltage sensor and the channel body. In each case, we noted electrostatic and hydrogen bond interactions between the headgroup of PIP2 and multiple disease associated residues. Among these, we elected to perform functional studies on Nav1.5-R1644C, an LQT3 mutant located between the S4 and S5 transmembrane segments of DIV. We expressed wild type Nav1.5 or Nav1.5-R1644C with Nav1β, CIBN-CAAX and CRY2-5POCRL in HEK293T cells and studied ILATE with and without optogenetic dephosphorylation of PIP2. In wild-type Nav1.5, ILATE was 0.25±0.1% of the peak (n=8) whereas in […], ILATE was 1.2±0.2% of peak (n=8, P<0.01, unpaired t-test comparison to WT). Dephosphorylation of PIP2 elevated ILATE in both channels to ˜4% of the peak but did so more rapidly for Nav1.5-R1644C. Thus, WT Nav1.5 ILATE plateaued after 180±15 s of optogenetic dephosphorylation compared to 86±22 s in Nav1.5-R1644C channels (n=8 for both experiments). […] Next, we used the Monolith Nanotemper system to establish a microscale thermophoresis (MST) approach to measure the binding affinity of PIP2 for Nav1.5 channels. MST measures the mobility of the GFP-tagged protein in response to an IR-laser pulse. Ligand binding alters the motion of the target protein, allowing the user to generate a binding curve and extracting a binding constant (Kd) (FIG. 6A). First, we studied GFP-Nav1.5 expressed in HEK293T cells along with Navβ1.
# Next, aimed to test the hypothesis that the relationship of PIP2 with the channel in certain disease-associated variants is altered. We employed a variant of Nav1.5 identified in patients with Long QT Syndrome Type 3, Arg1644→C and assessed it sensitivity to the widely used 5P-OCRL construct. We observed a right shift in the G-V curve and an increase in the ILATE over WT conditions as well as a further increase following blue light induction of PIP2 dephosphorylation. We then used the patch pipette to enrich cells expressing these channels with diC8PI(4,5)P2. We observed that the enhanced ILATE observed under control conditions is mitigated by the inclusion of diC8PIP2 in patch pipette while the shift in the G-V is not rescued by the inclusion of diC8PI(4,5)P2 in the pipette.
# [2] = target: T1, Nav1.5-R1644C; assay: MST binding of diC8-PIP2 to GFP-Nav1.5-R1644C in cell lysate; details: for affinity (Kd) of Nav1.5-R1644C relative to WT, fold lower: R1644C vs WT
# Procedure: The method utilizes cell lysates obtained from transfected/infected cells that are lysed and incubated with varying concentrations of a water-soluble analogue of PIP2 commercially available as diC8-PI(4,5)P2, in a 384 well plate. Other phosphoinositides such as diC8PI(4)P of diC8PI(5)P can also be utilized. After a brief incubation (10-30 mins) samples are loaded onto capillary chips purchased from the company Nanotemper. Samples are run on the Nanotemper Monolith instrument. This instrument is advertised to detect green fluorescent protein (GFP) tagged proteins, however we have also used TFP (teal FP) tagged proteins. The instrument provides a short infra-red laser pulse which produces a short thermal gradient. Protein that is interacting with the lipid migrates differently through this thermal gradient and its movement is evaluated by the fluorescence of the GFP/TFP tag on the protein. Based on the concentration of the dic8-phosphoinositide, this resolves into a sigmoidal relationship that delivers an apparent affinity (Kd) value. A test ligand can be added to this assay at a known concentration that is at or close to its Kd for the channel. A shift in the channel's affinity for PIP2 in this assay can help indicate whether this test compound is a good drug candidate for further biological experiments.
# Results. Our studies were designed to evaluate PIP2-regulation for Nav1.5 channelopathies from multiple perspectives. Given that there is a lack of structural data to identify where, or how many PIP2 molecules bind to Nav1.5, we performed a docking simulation to identify putative PIP2 binding sites in the open, rat and human Nav1.5 cryoEM structures (PDB: 6UZ3 and 7DTC) (56-58). We observed four potential PIP2 binding sites at the boundary between the inner leaflet of the membrane and the cytoplasm with one at the interface between each voltage sensor and the channel body. In each case, we noted electrostatic and hydrogen bond interactions between the headgroup of PIP2 and multiple disease associated residues. […]
smiles,measurement,setting,value
CCCCCCCC(=O)OC[C@H](COP(=O)(O)O[C@@H]1[C@H](O)[C@H](O)[C@@H](OP(=O)(O)O)[C@H](OP(=O)(O)O)[C@H]1O)OC(=O)CCCCCCC [diC8-PIP2],effect on elevated baseline ILATE,[1]; 200 μM diC8-PIP2 in pipette,ameliorated; also recorded: abolishing; also recorded: decreased
same,effect on elevation in ILATE following optogenetic stimulation of CRY2-5POCRL,[1]; 200 μM diC8-PIP2 in pipette,opposed
same,effect on more rapid rise of ILATE on PIP2 dephosphorylation,[1]; 200 μM diC8-PIP2 in pipette,opposed
same,effect on elevated baseline ILATE,"[1]; 200 μM diC8-PIP2 in pipette, listed as diC8PIP2",mitigated
same,ILATE,"[1]; 200 μM diC8-PIP2 in pipette, without diC8-PIP2 1.2±0.2",0.46±0.1 % of peak INa
same,effect on right shift in the G-V,"[1]; diC8PI(4,5)P2 in pipette",not rescued
same,Kd,"[2]; Kd of diC8-PIP2 for Nav1.5-R1644C, GFP-Nav1.5-R1644C, HEK293T lysate",345 nM and 445 nM
same,"affinity (Kd) of Nav1.5-R1644C relative to WT, fold lower",[2],~8 fold and ~10 fold
same,"affinity (Kd) of Nav1.5-R1644C relative to WT, fold lower","[2]; listed as diC8PI(4,5)P2",almost ten-fold lower
